From patent publication US20250145600A1, “2-((4-((S)-2-(4-CHLORO-2-FLUOROPHENYL)-2-METHYLBENZO[D][1,3]DIOXOL-4-YL)PIPERIDIN-1-YL)METHYL)-1-(((S)-OXETAN-2-YL)METHYL)-1H-IMIDAZOLE DERIVATIVES AS ACTIVATORS OF THE GLP1 RECEPTOR FOR THE TREATMENT OF OBESITY” (Novartis AG, priority 2022, published 2025) come the findings set out here.

pEC50: −log10 of the molar value.

For this test, the target named is human GLP1R (hGLP1R) (Homo sapiens, UniProt P43220). The test can be described thus: Human GLP1R cAMP agonist assay (GloSensor cAMP Assay). It counts as cell-based. The following applies: HEK293-SNAP-hGLP1R-GloSensor cells; for Emax: cAMP activity as percent of GLP1 (7-36) EC100 control; for pEC50: intracellular cAMP, 12 min at rt. As for the experimental part: Compounds of formula (I) according to the invention were tested in the following cellular assays that measure the intracellular cAMP concentration, beta-arrestin recruitment and receptor internalization. The cAMP is generated by the activation of GLP1R. The extent to which the GLP1R is internalized into the cell and away from the plasma membrane following activation is also shown in Table 2. EC50 for each assay is defined as the concentration of the compound that leads to half of the maximum response (after baseline correction). Emax is defined as the maximum response observed for the test compound, normalized to the maximum response observed for the endogenous ligand (GLP1(7-36)) to GLP1R.
Human GLP1R cAMP Agonist Assay
The agonist activity of compounds was determined using the GloSensor™ cAMP Assay (Promega Corp.), which measures changes in the intracellular concentration of cAMP after ligand activation of GPCRs. The assay uses a biosensor encoded by pGloSensor™-22F cAMP plasmid (Promega, cat #E2301) with cAMP binding domains fused to a mutant form of Photinus pyralis luciferase. Binding to cAMP causes conformational changes that promote large increases in light output, which can be measured by a luminescence detector. HEK293-SNAP-hGLP1R-GloSensor cells stably overexpressing the human GLP1 receptor (hGLP1R) and pGloSensor™-22F were seeded in white 384-well poly-D-Lysine coated plates (Greiner Bio One, cat #781945) in CO2-independent media (Gibco cat #18045-088 with 1.0% FBS, 2 mM L-glutamine, penicillin and streptomycin) and incubated overnight at 37° C., 5% CO2 with humidity. The assay was started the following morning by adding an equal volume of CO2-independent media containing 4% v/v dilution of the GloSensor substrate (Promega, cat #E1291) to all wells. The cell plate was incubated at rt for 2 h in the dark. The Biomek 7 (Beckman Coulter) instrument was used for the liquid handling steps. To generate duplicate dose response curves, 3-fold serially diluted compounds were added in to the cell assay plate to a final volume of 60 μL with final concentrations ranging from 30 μM through 0.06 μM in CO2-independent media containing 0.1% BSA, 0.5 mM IBMX and 0.4% DMSO. In the same plate and assay buffer as the tested compounds, were EC100 control wells containing GLP1 (7-36) peptide (Bachem, cat #H-6795) at a final concentration of 2 nM and also EC0 control wells containing no peptide. This plate was incubated at rt in the dark for 12 min after adding the compounds to the cells. Luminescence was then measured with an Envision 2104 Multilabel reader with “TRF Light Unit, 337 nm” (PerkinElmer) using the Ultra-Sensitive protocol setting “384-well US luminescence detector” with the 384-well luminescence aperture, 0.1 seconds per well. cAMP activity was calculated as percent of the GLP1 (7-36) EC100 control wells: [(sample signal−mean EC0 signal)/(mean EC100 of GLP1 (7-36) signal−mean EC0 signal)}*100. Curve fitting for EC50 determinations was performed in the Helios module of the software package DAVID. The 4-parameter logistic model, Hill slope was used: y=Ainf+(A0−Ainf)/(1+(x/AC50)^Hill Slope) where y is the functional response; x is the compound concentration; A0 is the minimum value (at 0 dose); Ainf is the maximum value (at infinite dose); AC50 corresponds to the point of inflection (i.e. the point on the sigmoid shaped curve halfway between A0 and Ainf). The EC50 value was represented by the AC50 value calculated from Helios in μM. Emax is the maximal activity detected within the concentration range, derived from the fitted curve.
327 μL of Opti-MEM medium (Gibco, cat #31985-062) were mixed with 12 μL of FuGENE® HD (Promega, cat #E2311) and incubated at rt for 5 min. Then 8.2 μL (4 μg, 0.485 μg/μL solution) of pSNAP-hGLP1R plasmid (Cisbio, cat #PSNAP-GLP1) encoding human GLP1R (NCBI Reference Sequence: NM_002062.3) fused with Cisbio's SNAP tag was added in to the Fugene HD/Opti-MEM mix, and incubated at rt for 20 min. […]

Chain of human GLP1R (hGLP1R) (P43220 24-463): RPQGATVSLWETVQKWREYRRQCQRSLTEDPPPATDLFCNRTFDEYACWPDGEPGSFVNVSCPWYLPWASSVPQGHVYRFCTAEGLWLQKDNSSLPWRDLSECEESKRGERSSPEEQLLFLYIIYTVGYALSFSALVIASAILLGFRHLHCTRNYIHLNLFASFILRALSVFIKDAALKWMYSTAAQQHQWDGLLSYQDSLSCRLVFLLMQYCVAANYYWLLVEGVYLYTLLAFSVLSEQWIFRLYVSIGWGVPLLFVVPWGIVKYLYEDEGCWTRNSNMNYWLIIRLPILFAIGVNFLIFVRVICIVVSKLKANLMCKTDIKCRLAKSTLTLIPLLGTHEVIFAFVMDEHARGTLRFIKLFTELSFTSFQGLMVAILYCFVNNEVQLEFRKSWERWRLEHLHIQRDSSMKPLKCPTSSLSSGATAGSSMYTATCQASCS

Turning to `Cc1nc(CN2CCC(c3cccc4c3O[C@@](C)(c3ccc(Cl)cc3F)O4)CC2)n(C[C@H]2CCO2)c1-c1ncc(C(=O)O)o1` [Compound C-2, 2-(2-((4-((S)-2-(4-chloro-2-fluorophenyl)-2-methylbenzo[d][1,3]dioxol-4-yl)piperidin-1-yl)methyl)-4-methyl-1-(((R)-oxetan-2-yl)methyl)-1H-imidazol-5-yl)oxazole-5-carboxylic acid], the Emax – broadly, the size of the effect at its maximum, as opposed to the concentration needed – worked out at 108% and the pEC50 (in general, the EC50 on a negative log10 scale, so that one unit is a factor of ten) is 9.83.

Turning to `Cc1nc(CN2CCC(c3cccc4c3O[C@@](C)(c3ccc(Cl)cc3F)O4)CC2)n(C[C@H]2CCO2)c1-c1nc(C(=O)O)co1` [Compound C-3, 2-(2-((4-((S)-2-(4-chloro-2-fluorophenyl)-2-methylbenzo[d][1,3]dioxol-4-yl)piperidin-1-yl)methyl)-4-methyl-1-(((R)-oxetan-2-yl)methyl)-1H-imidazol-5-yl)oxazole-4-carboxylic acid], the Emax was 105% and the pEC50 is 10.32.

On to `CCc1nc(CN2CCC(c3cccc4c3O[C@@](C)(c3ccc(Cl)cc3F)O4)CC2)n(C[C@@H]2CCO2)c1-c1ncc(C(=O)O)o1` [Compound C-6, 2-(2-((4-((S)-2-(4-chloro-2-fluorophenyl)-2-methylbenzo[d][1,3]dioxol-4-yl)piperidin-1-yl)methyl)-4-ethyl-1-(((S)-oxetan-2-yl)methyl)-1H-imidazol-5-yl)oxazole-5-carboxylic acid], for which the Emax was found to be 123% and the pEC50 is 9.33.

With `CCc1nc(CN2CCC(c3cccc4c3O[C@@](C)(c3ccc(Cl)cc3F)O4)CC2)n(C[C@H]2CCO2)c1-c1ncc(C(=O)O)o1` [Compound C-8, 2-(2-((4-((S)-2-(4-chloro-2-fluorophenyl)-2-methylbenzo[d][1,3]dioxol-4-yl)piperidin-1-yl)methyl)-4-ethyl-1-(((R)-oxetan-2-yl)methyl)-1H-imidazol-5-yl)oxazole-5-carboxylic acid], the Emax was 101% and the pEC50 was 9.45.

The compound `Cc1nc(CN2CCC(c3cccc4c3O[C@@](C)(c3ccc(C#N)cc3F)O4)CC2)n(C[C@@H]2CCO2)c1-c1nc(C(=O)O)c(C)o1` [Compound C-11, 2-(2-((4-((S)-2-(4-cyano-2-fluorophenyl)-2-methylbenzo[d][1,3]dioxol-4-yl)piperidin-1-yl)methyl)-4-methyl-1-(((S)-oxetan-2-yl)methyl)-1H-imidazol-5-yl)-5-methyloxazole-4-carboxylic acid] had an Emax of 105% and a pEC50 of 10.37.

In turn, `Cc1nc(-c2nc(CN3CCC(c4cccc5c4O[C@@](C)(c4ccc(Cl)cc4F)O5)CC3)n(C[C@@H]3CCO3)c2C)oc1C(=O)O` [Compound C-15, 2-(2-((4-((S)-2-(4-chloro-2-fluorophenyl)-2-methylbenzo[d][1,3]dioxol-4-yl)piperidin-1-yl)methyl)-5-methyl-1-(((S)-oxetan-2-yl)methyl)-1H-imidazol-4-yl)-4-methyloxazole-5-carboxylic acid] had an Emax of 103% and a pEC50 of 9.95.

`Cc1nc(CN2CCC(c3cccc4c3O[C@@](C)(c3ccc(Cl)cc3F)O4)CC2)n(C[C@@H]2CCO2)c1-c1ccc(C(=O)O)o1` [Compound C-22, 5-(2-((4-((S)-2-(4-chloro-2-fluorophenyl)-2-methylbenzo[d][1,3]dioxol-4-yl)piperidin-1-yl)methyl)-4-methyl-1-(((S)-oxetan-2-yl)methyl)-1H-imidazol-5-yl)furan-2-carboxylic acid]: the Emax was 119% and the pEC50 was 9.46.

Turning to `Cc1c(-c2cncc(C(=O)O)c2)nc(CN2CCC(c3cccc4c3O[C@@](C)(c3ccc(Cl)cc3F)O4)CC2)n1C[C@@H]1CCO1` [Compound C-23, 5-(2-((4-((S)-2-(4-chloro-2-fluorophenyl)-2-methylbenzo[d][1,3]dioxol-4-yl)piperidin-1-yl)methyl)-5-methyl-1-(((S)-oxetan-2-yl)methyl)-1H-imidazol-4-yl)nicotinic acid], the Emax came out at 106%.
